Laboratory results published in patent US11162937B2, “Patient selection method for inflammation” (Purdue Research Foundation, priority 2013, dated 2021).

Tests used:
CIA mice [1] = assay: Collagen-induced arthritis (CIA) mice: ^99mTc-EC20 radioimaging, arthritis score and paw thickness under anti-inflammatory therapy; conditions: for disease symptoms (arthritis score, paw swelling) relative to disease control / uptake of ^99mTc-EC20 in the affected appendages relative to disease control: day 3 of therapy; for uptake of ^99mTc-EC20 in the affected appendages relative to disease control: 150 μCi ^99mTc-EC20 i.p., imaged after 4 h
Experimental: Collagen-induced arthritis (CIA) was initiated using established methods on 6-7 week old female DBA/1 mice (Jackson Laboratories) maintained on folate-deficient diet (Harlan-Teklad). Briefly, mice were immunized at the base of the tail with 100 μg bovine type II collagen emulsified in complete Freund's adjuvant (Chondrex, Inc., Redmond, Wash., USA). Mice were then boosted 21 days later with a similar injection of 100 μg bovine type II collagen emulsified in incomplete Freund's adjuvant. After four days, onset of arthritis was synchronized in all mice with an intraperitoneal injection of 25 μg lipopolysaccharide (LPS) dissolved in saline. Three days later mice were distributed equally across control and treatment groups (n=5). Healthy mice and disease control mice received daily intraperitoneal injections of 100 μL saline. […] Arthritis scores were assessed every other day by researchers blinded to the various treatment groups, using the following scoring system: 0=normal; 1=mild, but definite redness and swelling of the ankle or wrist, or apparent redness and swelling limited to individual digits, regardless of the number of affected digits; 2=moderate redness and swelling of ankle or wrist; 3=severe redness and swelling of the entire paw including digits; 4=maximally inflamed limb with involvement of multiple joints. A total score for each mouse was calculated by summing the scores for each of the four paws, allowing a maximum possible score of 16 per animal. Paw thickness was measured with calipers every other day starting on the first day of treatment. On day 3 of treatment, mice were anesthetized with isoflurane and imaged with ^99mTc-EC20 as described below. Mice were again imaged and then euthanized by CO2 asphyxiation on day 11 of treatment.
(§1) ^99mTc-EC20 was prepared as previously described in C. P. Leamon, M. A. Parker, I. R. Vlahov, L. Xu, J. A. Reddy, M. Vetzel, N. Douglas, Synthesis and Biological Evaluation of EC20: A New Folate-Derived, ^99mTc-Based Radiopharmaceutical. Bioconjugate Chem. 13, 1200-1210 (2002), incorporated herein by reference. A preparation method for ^99mTc-EC20 is also described in U.S. Pat. No. 7,128,893, incorporated herein by reference. Briefly, 1 mL of 15 mCi/mL sodium pertechnetate (Cardinal Health) was added to 0.1 mg of EC20 (a gift from Endocyte, Inc.) and heated at 100° C. for 18 min. After diluting with saline, 100 μL ^99mTc-EC20 (150 μCi (˜75 nmol of EC20 per kilogram for CIA, ulcerative colitis and pulmonary fibrosis mice) or 300 μCi (˜150 nmol of EC20 per kilogram for atherosclerosis)) was injected intraperitoneally into the desired mice, and unbound ^99mTc-EC20 was allowed to clear from tissues for 4 h. Mice were then either anesthetized with 3% isoflurane (CIA, atherosclerosis, and pulmonary fibrosis mice) or euthanized (ulcerative colitis mice) prior to image acquisition using a Kodak Image Station operated with Kodak molecular imaging software (version 4.5; Carestream Molecular Imaging). Radioimages were acquired for 2 minutes using a radioisotopic phosphor screen, no illumination source, 4×4 binning, focal plane=5, FOV=160, and f-stop=0. White light images were acquired for 0.175 seconds with white light transillumination source, no binning, focal plane=5, FOV=160, and f-stop=11.
Mice were induced to develop collagen-induced arthritis (CIA, a well-established model of rheumatoid arthritis) and subjected 28 days later to treatment with methotrexate, dexamethasone or saline (disease control). Three days after initiation of therapy, the mice were injected with 150 μCi of ^99mTc-EC20 and subjected to their first planned radioimage analysis.

[2] = test system: mice with ulcerative colitis; assay: DSS-induced ulcerative colitis mice: ^99mTc-EC20 radioimaging of colon, clinical score and colon length under therapy; assay type: in vivo; conditions: for clinical scores compared to disease control mice / colon shortening compared to disease control mice: after 8 days of continuous therapy; for clinical scores or colon lengths relative to saline-treated mice / ^99mTc-EC20 uptake in colon relative to saline-treated mice: day 4 of therapy; for ^99mTc-EC20 uptake in colon relative to saline-treated mice: 150 μCi ^99mTc-EC20; for ^99mTc-EC20 radioimages compared with the earlier time point (day 4): day 8 of therapy
Experimental: Ulcerative colitis was induced as previously described in S. Wirtz, C. […] Nat Protoc. 2, 541-546 (2007), incorporated herein by reference. Seven week old Balb/c mice (Harlan Laboratories) maintained on a folate-deficient diet were administered 5% dextran sodium sulfate (DSS) in their drinking water. Mice were divided into treatment groups (n=10 per group). Healthy mice and disease control mice received 100 μL saline daily by oral gavage. Diseased mice were treated daily with cimetidine (100 mg/kg) or sulphasalazine (150 mg/kg) by oral gavage. Healthy mice were maintained on normal water and similarly treated with saline. Disease symptoms were assessed daily and quantitated by adding the scores from each of the following tests: Weight loss: 0=no weight loss, 1=1-5% weight loss, 2=6-10% weight loss, 3=11-15% weight loss, 4=>15% weight loss; Stool appearance: 0=normal, 1=loose feces, 2=diarrhea; Hematochezia (blood in stool): 0=no blood, 1=positive via guaiac paper, 2=visually bloody; Overall appearance: 0=normal, 1=ruffled fur/altered gait, 2=lethargic, moribund. On day 4 of therapy, half of each treatment group (n=5) received an intraperitoneal injection of ^99mTc-EC20. After 4 hours, the injected mice were euthanized and the bladder and kidneys were removed to reduce background radiation associated with ^99mTc-EC20 undergoing excretion. Mice were then imaged to assess uptake of ^99mTc-EC20 in the colon, and the colons were removed and measured with calipers to evaluate colon shortening as a measure of disease severity. On day 8, the remaining mice were injected with ^99mTc-EC20 and analyzed similarly.
as §1
Mice (n=10/group) were administered 5% dextran sulfate sodium (DSS) in water to induce ulcerative colitis and then treated daily with cimetidine, sulphasalazine or saline (disease control). Then on day 4, half of the mice (n=5/group) were injected with 150 μCi ^99mTc-EC20 and euthanized in preparation for subsequent imaging of their colons.

macrophage accumulation = assay: Flow cytometric analysis (F480-PE) of macrophage accumulation in large intestine of ulcerative colitis mice; assay type: in vivo; conditions: after 4 days of treatment, F480-PE flow cytometry
Experimental: Ulcerative colitis was induced as described. Seven week old Balb/c mice (Harlan Laboratories) maintained on a folate-deficient diet were administered 5% dextran sodium sulfate (DSS) in their drinking water. Healthy control mice were maintained on normal water. Mice were divided into treatment groups (n=3 per group). Healthy mice and disease control mice received 100 μL saline daily by oral gavage. Diseased mice were treated daily with cimetidine (100 mg/kg) or sulphasalazine (150 mg/kg) by oral gavage. After 4 days of treatment, mice were euthanized and large intestines were removed. Equal weights of the large intestines were digested and made into single cell suspensions. Cells were included with mouse macrophage marker F480-PE and analyzed by flow cytometry.

CIA mice [3] = conditions: prior finding; cited from earlier work
ApoE−/− mice [4] = conditions: prior finding; cited from earlier work
ApoE−/− mice [5] = assay: Atherosclerosis in ApoE−/− mice on high fat diet: ^99mTc-EC20 radioimaging and aortic histology under therapy; assay type: in vivo
Experimental: Five week old male ApoE−/− mice were purchased from Jackson Laboratories and placed on an adjusted calorie diet (42% from fat, Harlan Laboratories). Healthy control mice (C57BL/6) were similarly maintained on normal chow. Mice were divided into therapy groups (n=5). Healthy mice and disease control mice received 100 μL saline daily by oral gavage. Diseased mice were treated daily with valsartan (1 mg/kg), or fluvastatin (3 mg/kg) by oral gavage. After three weeks of treatment, mice were imaged with 300 μCi ^99mTc-EC20. Mice were again imaged with ^99mTc-EC20 after 12 weeks of therapy and then euthanized by CO2 asphyxiation. Aortas were dissected and H&E and oil red O staining was performed.
(§2) ^99mTc-EC20 was prepared as previously described in C.
The ability to predict response to therapy might be most useful when applied to treatment of inflammatory/autoimmune diseases that are either intrinsically difficult to monitor or slow to respond to therapeutic intervention. Because atherosclerosis suffers from both disadvantages due to its inaccessible location and slow rate of progression, ^99mTc-EC20 was analyzed to determine if it might be effective in predicting response to therapy in a common murine model of heart disease. […] After 3 weeks of daily treatment, when no morphological symptoms of heart disease could be detected, mice were anesthetized and imaged with ^99mTc-EC20.

[6] = test system: mice with pulmonary fibrosis; assay: Bleomycin-induced pulmonary fibrosis mice: ^99mTc-EC20 radioimaging, BAL cell count, lung hydroxyproline, H&E; assay type: in vivo
Experimental: Pulmonary fibrosis was induced in mice as previously described in B. B. Moore, C. M. Hogaboam, Murine models of pulmonary fibrosis. Am J Physiol Lung Cell Mol Physiol. 294, L152-160 (2008), incorporated herein by reference. Briefly, 6 week old female C57BL/6 mice (Harlan Laboratories) maintained on a folate-deficient diet were anaesthetized with isoflurane, and 50 μL of bleomycin (2 U/kg body weight) dissolved in saline was intratracheally instilled into each mouse. Healthy control mice were similarly intratracheally instilled with 50 μL saline. Mice were then separated into treatment groups (n=5). […] Diseased mice were injected every day intraperitoneally with dexamethasone (0.5 mg/kg) or etanercept (300 μg). Mice were imaged with ^99mTc-EC20 after 6 days of treatment and again after 15 days of treatment. Mice were then euthanized by CO2 asphyxiation and bronchoalveolar lavage fluid was collected and cells were counted using a Beckman Coulter Z™ Series COULTER COUNTER® Cell and Particle Counter. The left lung was fixed in formalin and submitted to the Purdue Histology & Phenotyping Laboratory for H&E staining and the right lung was used for analysis of hydroxyproline content using a hydroxyproline assay kit from Sigma-Aldrich (St. Louis, Mo.).
as §2
Since pulmonary fibrosis is thought to be primarily driven by M2 macrophages, C57BL/6 mice were induced to develop an acute form of lung fibrosis by intratracheal instillation of bleomycin. Immediately following disease induction, mice were treated daily with intraperitoneal injections of dexamethasone, etanercept, or saline, and then imaged with ^99mTc-EC20 six days later.

Nc1nc2ncc(CNc3ccc(C(=O)N[C@H](CCC(=O)NC[C@@H]4[NH][99Tc]56(=[O])[S]C[C@@H](C(=O)O)[N]5C(=O)[C@H](CC(=O)O)[N]6C4=O)C(=O)O)cc3)nc2c(=O)[nH]1 [^99mTc-EC20]
accumulation of ^99mTc-EC20 in inflamed appendages (CIA mice [1]; CIA mice not treated with any anti-inflammatory drug, 150 μCi i.p.): exhibited the accumulation of ^99mTc-EC20 in their inflamed appendages

CN/C(=N/CCSCc1nc[nH]c1C)NC#N [cimetidine]
clinical scores compared to disease control mice [2]: significantly lower | colon shortening compared to disease control mice [2]: reduced colon shortening | clinical scores or colon lengths relative to saline-treated mice [2]: no significant difference | ^99mTc-EC20 uptake in colon relative to saline-treated mice [2]: significantly less | ^99mTc-EC20 radioimages compared with the earlier time point (day 4) [2]: essentially unchanged | macrophage accumulation in large intestine compared to the disease control group (macrophage accumulation): reduced macrophage accumulation

CN(Cc1cnc2nc(N)nc(N)c2n1)c1ccc(C(=O)N[C@@H](CCC(=O)O)C(=O)O)cc1 [methotrexate]
disease symptoms (arthritis score, paw swelling) relative to disease control (CIA mice [1]; CIA mice): no reduction | uptake of ^99mTc-EC20 in the affected appendages relative to disease control (CIA mice [1]; CIA mice): markedly less | disease symptoms / joint inflammation (arthritis score, paw thickness) relative to disease control (CIA mice [1]; CIA mice, day 11 of therapy): substantially resolved | uptake of ^99mTc-EC20 (radioimages) (CIA mice [1]; CIA mice, day 11 of therapy): significantly reduced uptake

COc1ccc2cc([C@H](C)C(=O)O)ccc2c1 [naproxen]
efficacy in the CIA model of arthritis in mice (previously found) (CIA mice [3]): little efficacy

O=C(O)c1cc(/N=N/c2ccc(S(=O)(=O)Nc3ccccn3)cc2)ccc1O [sulphasalazine]
clinical scores compared to disease control mice [2]: significantly lower | colon shortening compared to disease control mice [2]: reduced colon shortening | clinical scores or colon lengths relative to saline-treated mice [2]: no significant difference | ^99mTc-EC20 uptake in colon relative to saline-treated mice [2]: significantly less | ^99mTc-EC20 radioimages compared with the earlier time point (day 4) [2]: essentially unchanged | macrophage accumulation in large intestine compared to the disease control group (macrophage accumulation): reduced macrophage accumulation

CCCCC(=O)N(Cc1ccc(-c2ccccc2-c2nnn[nH]2)cc1)[C@H](C(=O)O)C(C)C [valsartan]
plaque formation in murine models of atherosclerosis (have been shown) (ApoE−/− mice [4]): reduce plaque formation | ^99mTc-EC20 uptake in chest cavities relative to saline-treated mice (ApoE−/− mice [5]; after 3 weeks of daily treatment): significantly less | aortic wall thickening relative to saline-treated mice (ApoE−/− mice [5]; after 12 weeks of daily therapy, H&E): significantly reduced

etanercept
disease symptoms (arthritis score, paw swelling) relative to disease control (CIA mice [1]; CIA mice): no significant difference | uptake of ^99mTc-EC20 in the affected appendages relative to disease control (CIA mice [1]; CIA mice): significantly less uptake | disease symptoms / joint inflammation (arthritis score, paw thickness) relative to disease control (CIA mice [1]; CIA mice, day 11 of therapy): significantly reduced inflammation | fibrosis by H&E analysis of the lungs ([6]; day 15 of treatment): reduced fibrosis | hydroxyproline contents in resected lung tissues compared to saline-treated controls ([6]; day 15 of treatment): reduced hydroxyproline contents | total cell counts in bronchoalveolar lavage fluids compared to saline-treated controls ([6]; day 15 of treatment): decreased total cell counts | accumulation of ^99mTc-EC20 compared to saline-treated disease controls ([6]; six days of treatment): decreased accumulation
